pIC50: −log10 of the molar value. Where two headings read alike, the source gives them in different places. Bridge positions count the residues as written; N and C are the ends. Square brackets hold non-standard residues; d marks the D form. Peptide text beside a SMILES is read from it. * marks the point of attachment. 2Nal = N[C@@H](Cc1ccc2ccccc2c1)C(=O)O; Lys(iPr) = CC(C)NCCCC[C@H](N)C(=O)O; hCys = N[C@@H](CCS)C(=O)O; Bz = O=C(c1ccccc1)*; Mpa = O=C(O)CCS Bounds are passed on as bounds.

What is called pIC50 is the IC50 on a negative log10 scale, so that one unit is a factor of ten.

The target of this experiment is T1, Human chemokine receptor CXCR4 (Homo sapiens, UniProt P61073).
T1 construct: expressed in transfected cells; host or cells: Chem-1 cells (membranes)
T1 sequence (P61073 whole entry): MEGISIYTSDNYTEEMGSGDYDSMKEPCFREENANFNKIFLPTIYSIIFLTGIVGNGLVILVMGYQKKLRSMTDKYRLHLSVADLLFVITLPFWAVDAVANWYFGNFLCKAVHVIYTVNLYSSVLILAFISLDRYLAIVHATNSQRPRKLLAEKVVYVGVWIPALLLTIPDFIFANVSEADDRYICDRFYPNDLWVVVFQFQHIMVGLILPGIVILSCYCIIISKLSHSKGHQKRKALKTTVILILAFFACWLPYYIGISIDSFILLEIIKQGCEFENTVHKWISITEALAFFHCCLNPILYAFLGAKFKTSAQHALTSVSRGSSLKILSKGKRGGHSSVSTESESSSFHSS
The experiment is described as follows: Human CXCR4/125I-SDF-1α binding inhibition assay. The procedure:
“Ki” values are calculated using IC50 values determined in the CXCR4/^125I-SDF-1α binding assay described below by employing equation 7.22 of Enzymes, A Practical Introduction to Structure, Mechanism, and Data Analysis, Robert A. Copeland, Wiley-VCH, New York, 1996, page 207.
Human CXCR4/^125I-SDF-1α Binding Inhibition Assay:
Human chemokine receptor CXCR4 expressed in Chem-1 cells were used in modified HEPES buffer pH 7.4. A […] (Membrane protein may change from lot to lot, the concentration used were adjusted as necessary), aliquot was incubated with 0.03 nM [^125I]SDF-1α for 90 minutes at 25° C. Non-specific binding was estimated in the presence of 30 nM SDF-la. Membranes were filtered and washed, filters were then counted to determine [^125I]SDF-1α specifically bound. Compounds were screened starting at 10 μM with 11-point dilutions (Valenzuela-Fernandez A, et al. J Biol Chem. 277(18):15677, 2002).

The mark [1] stands for this setting: calculated from IC50 of the CXCR4/125I-SDF-1α binding assay, read-out: Binding Kb.

With `CCNC(=O)CNC(=O)[C@H](CCCCNC(C)C)NC(=O)[C@@H]1CSSCC[C@H](NC(=O)c2ccccc2)C(=O)N[C@@H](Cc2ccc(O)cc2)C(=O)N[C@@H](CCCCNC(C)C)C(=O)N[C@H](CCCNC(=N)N)C(=O)N[C@@H](Cc2ccc3ccccc3c2)C(=O)NCC(=O)N1` [Example 14, Benzoyl-cyclo[hCys-Tyr-Lys(iPr)-(D-Arg)-2Nal-Gly-Cys]-Lys(iPr)-Gly-NH(Et)] (Bz-[hCys]Y[Lys(iPr)][dR][2Nal]GC[Lys(iPr)]G-NHEt; disulfide 1-7), the pIC50 was 8.89 and the Kb turned out to be 0.39 nM.

Turning to `N=C(N)NCCC[C@@H]1NC(=O)CCSSC[C@@H](C(=O)N[C@@H](CCCNC(=N)N)C(=O)NCC(=O)N[C@H](Cc2ccccc2)C(=O)NCC(N)=O)NC(=O)CNC(=O)[C@H](Cc2ccc3ccccc3c2)NC(=O)[C@H](CCCNC(=N)N)NC(=O)[C@H](Cc2ccc(O)cc2)NC1=O` [Example 5, Cyclo[Mpa-Arg-Tyr-Arg-2Nal-Gly-Cys]-Arg-Gly-(D-Phe)-Gly-NH2] ([Mpa]RYR[2Nal]GCRG[dF]G-NH2; disulfide 1-7), where the note is “CXCR4 expressed in Chem-1 cells, 0.03 nM [125I]SDF-1α, 90 minutes at 25° C., HEPES buffer pH 7.4, read-out: Binding IC50”, the pIC50 is below 6.00. For the same compound, the Kb under setting [1] is above 1000 nM.

Consider `CC(C)NCCCC[C@@H]1NC(=O)[C@H](Cc2ccc(O)cc2)NC(=O)CCSSC[C@@H](C(=O)N[C@H](CCCNC(=N)N)C(=O)NCC(=O)N[C@H](Cc2ccccc2)C(=O)NCC(N)=O)NC(=O)CNC(=O)[C@H](Cc2ccc3ccccc3c2)NC(=O)[C@@H](CCCNC(=N)N)NC1=O` [Example 4, Cyclo[Mpa-Tyr-Lys(iPr)-(D-Arg)-2Nal-Gly-Cys]-(D-Arg)-Gly-(D-Phe)-Gly-NH2] ([Mpa]Y[Lys(iPr)][dR][2Nal]GC[dR]G[dF]G-NH2; disulfide 1-7), for which the Kb under setting [1] is 0.21 nM.

In the case of `CC(C)NCCCC[C@H](NC(=O)[C@@H]1CCSSC[C@H](NC(=O)c2ccccc2)C(=O)N[C@@H](Cc2ccc(O)cc2)C(=O)N[C@@H](CCCCNC(C)C)C(=O)N[C@H](CCCNC(=N)N)C(=O)N[C@@H](Cc2ccc3ccccc3c2)C(=O)NCC(=O)N1)C(=O)NCC(N)=O` [Example 12, Benzoyl-cyclo[Cys-Tyr-Lys(iPr)-(D-Arg)-2Nal-Gly-hCys]-Lys(iPr)-Gly-NH2] (Bz-CY[Lys(iPr)][dR][2Nal]G[hCys][Lys(iPr)]G-NH2; disulfide 1-7), the Kb amounted to 0.21 nM.
